Data from paper PMC4526662, “A Pyranose-2-Phosphate Motif Is Responsible for Both Antibiotic Import and Quorum-Sensing Regulation in Agrobacterium tumefaciens” (PLoS Pathogens, 2015).
Several values for one entry are separate records, joined by “and”; a condition that tells them apart may be missing. Identical values can stand only once. Entries after “also recorded” stand apart in the source; their conditions may differ.

Tests used:
AccA [1] = target: T1, AccA (Agrobacterium fabrum, UniProt Q52012); assay: biochemical; format: binding, Agrobacterium tumefaciens C58; details: for fluorescence intensity / autofluorescence signal change on incubating AccA with ligand: tryptophan fluorescence, excitation 295 nm, emission 335 nm
Method: Ligand binding to the protein AccA was investigated using tryptophan fluorescence spectroscopy, a method exploiting significant conformational changes accompanying the binding.
All experiments were performed at 22°C in 3 x 15 mm quartz cuvettes using Cary Eclypse spectrofluorometer (Varian) in 25 mM Tris-HCl pH 8.0 and 150 mM NaCl with a fixed amount of proteins (2 μM) and increasing concentrations of ligand. […] The data were analysed using Origin 7 software and fitted to the equation f = ΔFluorescencemax*abs(x)/(K D+abs(x)).

AccA [2] = target: T1, AccA; assay: AccA isothermal titration microcalorimetry; format: binding, Agrobacterium tumefaciens C58; details: for binding to AccA detected by microcalorimetry / TΔS / ΔG / ΔH / N (binding stoichiometry) / K (association binding constant): ITC; for K (association binding constant): Ka in M-1
Method: (§1) Isothermal titration microcalorimetry experiments were performed with an ITC200 isothermal titration calorimeter from MicroCal (GE Healthcare). The experiments were carried out at 20°C for AccA and 25°C for AccR. […] For agrocin 84 experiment, we inverted the protein and ligand positions: the ligand was in the cell and the protein in the syringe. This strategy was chosen to overcome the small amount of agrocin 84. The experimental data were fitted to theoretical titration curves with software supplied by MicroCal (ORIGIN). This software uses the relationship between the heat generated by each injection and ΔH (enthalpy change in Kcal.Mol-1), Ka (the association binding constant in M-1), n (the number of binding sites), total protein concentration and free and total ligand concentrations.
Target sequence in this assay (Q52012 entry or part of it): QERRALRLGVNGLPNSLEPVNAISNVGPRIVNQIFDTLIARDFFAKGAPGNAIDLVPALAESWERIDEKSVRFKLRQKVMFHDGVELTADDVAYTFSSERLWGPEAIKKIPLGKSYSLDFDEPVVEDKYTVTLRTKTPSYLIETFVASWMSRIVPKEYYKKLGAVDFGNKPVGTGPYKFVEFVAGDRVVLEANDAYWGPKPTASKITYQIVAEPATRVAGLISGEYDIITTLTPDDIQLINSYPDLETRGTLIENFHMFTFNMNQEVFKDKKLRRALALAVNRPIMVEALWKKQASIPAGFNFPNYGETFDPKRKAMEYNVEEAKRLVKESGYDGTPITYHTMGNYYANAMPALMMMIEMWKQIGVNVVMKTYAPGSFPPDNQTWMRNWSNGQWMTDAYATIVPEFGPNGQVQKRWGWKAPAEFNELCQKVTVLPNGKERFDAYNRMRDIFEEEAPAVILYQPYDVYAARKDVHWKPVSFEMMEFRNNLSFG

AccR = target: T2, AccR (Agrobacterium fabrum, UniProt P32104); assay: AccR isothermal titration microcalorimetry; format: binding, Agrobacterium tumefaciens C58
T2 construct: 6-His tag (C); made in house; host or cells: E. coli C41
T2 sequence (P32104 whole entry): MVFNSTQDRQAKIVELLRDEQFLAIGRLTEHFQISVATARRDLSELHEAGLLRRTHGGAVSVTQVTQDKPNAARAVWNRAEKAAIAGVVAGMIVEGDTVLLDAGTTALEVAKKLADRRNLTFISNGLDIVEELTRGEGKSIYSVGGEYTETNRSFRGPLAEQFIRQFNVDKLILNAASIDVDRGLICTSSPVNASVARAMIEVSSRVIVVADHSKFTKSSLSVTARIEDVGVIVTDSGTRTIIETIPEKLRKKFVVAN
Method: The question arose about their biological role in A. tumefaciens, especially in relation to regulation of the AccR/quorum-sensing pathway that controls dissemination of the Ti plasmid. We first measured the affinity of the synthetic agrocinopine A towards purified recombinant AccR by isothermal titration microcalorimetry.
as §1

A. tumefaciens C58 [3] = assay: Quantification of OC8HSL quorum-sensing signal in cell cultures; format: cell-based, Agrobacterium tumefaciens; details: 1 mM compound
Method: (§2) In complementation assay, the accF wild-type gene was cloned into p6000 [50] plasmid and electroporated into the accF mutant. Rifampicin-resistant recipient strain C58.00 was derived from A. tumefaciens C58 cured of the At and Ti plasmids. A. tumefaciens was cultivated at 28°C in AB minimal medium containing ammonium chloride (1 g/L) and mannitol (2 g/L), or in Luria-Bertani modified medium (LBm; NaCl 5 g/L). The antibiotics gentamycin and rifampicin were added at 25 μg/mL and 100 μg/mL, respectively.
(§3) Overnight LBm cultures of recipient (C58.00) and donor (C58 control) cells were mixed in an equal ratio (1:1). 10 μl of this mix were transferred into 140 μl of AB medium supplemented with mock or 1 mM of agrocinopine A, L-arabinose-2-phosphate and glucose-2-P for static liquid cultures of 24, 48, 72 and 96 hours. Suspension dilutions of these cultures were spotted onto selective agar media to enumerate the different bacterial populations (donor, recipient and Ti plasmid transconjugants). In parallel, to quantify OC8HSLs, aliquots of cell cultures were spotted onto TLC plates (RP-18/UV254, Macherey-Nagel) and incubated with the OC8HSL-bioindicator strain A. tumefaciens NT1(pZLR4) as previously described. Tested samples were compared with a calibration curve obtained with pure OC8HSL (Sigma-Aldrich).

A. tumefaciens C58 [4] = assay: Ti plasmid conjugation assay; format: cell-based, Agrobacterium tumefaciens; details: for Ti plasmid transconjugants: C58 control donor with recipient C58.00, 1 mM compound; for Ti plasmid conjugation: 1 mM compound
Method: as §2, §3

A. tumefaciens C58 [5] = assay: Uptake assay: growth with compound as sole carbon source; format: cell-based, Agrobacterium tumefaciens; details: 1 mM in AB media, OD600 monitored for 48 hours
Method: This experiment confirmed that the transporter can uptake bulky synthetic molecules such as agrocinopine 3’-O-benzoate into the cell as observed for the toxin agrocin 84, which is also a relatively large molecule.
A single colony of Agrobacterium tumefaciens C58 with pTiC58 derivative pTi::Gm was grown overnight at 28°C in AB media supplemented with mannitol (2 g/L) and gentamicin 25 μg.ml-1. 20 ml of AB media in presence of a carbon source (agrocinopine 3’-O-benzoate or L-arabinose-2-phosphate at a final concentration of 1 mM) or in absence of any carbon source and supplemented with gentamicin (25 μg.ml-1) were inoculated at an initial OD600 of 0.03 and the OD was monitored for 48 hours.

[6] = target: AccR, master transcriptional regulator (transcriptional repressor of the DeoR family) of Agrobacterium tumefaciens C58 (Agrobacterium tumefaciens C58); assay: native gel or EMSA; native gel electrophoresis of purified recombinant AccR in solution; conditions not given, no figure or methods section for this gel
[7] = AccA 2 μM, 22°C, 25 mM Tris-HCl pH 8.0, 150 mM NaCl, one binding site model, ND: no signal detected, read-out: apparent KD (autofluorescence titration)
[8] = accF mutant complemented with accF wild type (p6000)

Sequence of AccR, master transcriptional regulator (transcriptional repressor of the DeoR family) of Agrobacterium tumefaciens C58 (natural protein) (O30540 whole entry): as the sequence (P32104 whole entry) above

| Molecule | fluorescence intensity / autofluorescence signal change on incubating AccA with ligand (AccA [1]) | Kd (AccA [2]) | TΔS (AccA [2]; 20°C) | ΔG (AccA [2]; 20°C) | ΔH (AccA [2]; 20°C) | N (binding stoichiometry) (AccA [2]; 20°C, one binding site model) | K (association binding constant) (AccA [2]; 20°C) | also measured |
| --- | --- | --- | --- | --- | --- | --- | --- | --- |
| O=P(O)(O)O[C@H]1C(O)O[C@H](CO)[C@@H](O)[C@@H]1O (stereo partly drawn) | – | – | – | – | – | – | – | Kd (AccA [1]): 2500 nM |
| OC1OC[C@H](O)[C@H](O)[C@H]1O (mixture of isomers) [L-arabinose, reference compound] | No fluorescence intensity change | – | – | – | – | – | – | binding to AccA detected by microcalorimetry (AccA [2]): No signal detected; also recorded: could not detect any binding |
| CC(C)OP(=O)(O)O[C@H]1C(O)OC[C@H](O)[C@@H]1O (stereo partly drawn) [L-arabinose-2-isopropylphosphate] | – | 2200 ± 580 nM | -8E3 cal/mol/K | -7.6 kcal/mol | -1.56E4 ± 493 cal/mol | 1.08 ±0.03 | 4.72E5 ± 1.2E5 | Kd (AccA [1]; [7]): 4790 ± 600 nM |
| O=C[C@H](OP(=O)(O)O)[C@@H](O)[C@@H](O)CO [L-arabinose-2-phosphate] | – | 1330 ± 120 nM | -3.2E3 | -7.9 kcal/mol | -1.11E4 ± 168 cal/mol | 0.95 ± 0.01 | 7.54E5 ±6.5E4 | Kd (AccA [1]; [7]): 2930 ± 660 nM; Kd (AccR): 110 ± 60 nM; n1 (stoichiometry, first step) (AccR; ITC, 25°C): 0.4; n2 (stoichiometry, second step) (AccR; ITC, 25°C): 0.9; accumulation of quorum-sensing molecules (A. tumefaciens C58 [3]; accF defective mutant): still observed; Ti plasmid transconjugants (A. tumefaciens C58 [4]): could also be detected; Ti plasmid conjugation (A. tumefaciens C58 [4]; accF defective mutant donor): still activated |
| Nc1ncnc2c1ncn2[C@@H]1O[C@H](COP(=O)(O)O)[C@@H](O)[C@H]1O [adenosine monophosphate, reference compound] | – | – | – | – | – | – | – | binding to AccA detected by microcalorimetry (AccA [2]): could not detect any binding |
| O=C(OC1C(OP(=O)(O)OC2C(O)OCC(O)C2O)C(CO)OC1(CO)OC1OC(CO)C(O)C(O)C1O)c1ccccc1 (stereo not drawn) [agrocinopine 3’-O-benzoate] | – | 7500 ± 2200 nM | 3.2E3 | -6.9 kcal/mol | -3.7E3 ± 374 cal/mol | 0.99 ± 0.06 | 1.33E5 | Kd (AccA [1]; apparent KD (autofluorescence titration), AccA 2 μM, 22°C, 25 mM Tris-HCl pH 8.0, 150 mM NaCl, one binding site model, ND: no signal detected): 5880 ± 1600 nM; fold lower affinity with AccA in comparison with agrocinopine A (AccA [2]; ITC KD values): 25 fold; bacterial growth with compound as sole carbon source (A. tumefaciens C58 [5]): used as nutrient by the bacteria as indicated by bacterial growth |
| O=P(O)(OC1C(O)OCC(O)C1O)OC1C(CO)OC(CO)(OC2OC(CO)C(O)C(O)C2O)C1O (stereo not drawn) [agrocinopine A] | – | 300 ± 30 nM | -2.6E3 | -8.6 kcal/mol | -1.12E4 ± 98 cal/mol | 1 ± 0.006 | 2.99E6 ± 2.9E5 | Kd (AccA [1]; [7]): 1320 nM and 1300 nM; affinity towards purified recombinant AccR (AccR; ITC): no affinity was detected; accumulation of quorum-sensing molecules (A. tumefaciens C58 [3]; accF defective mutant): abolished; accumulation of quorum-sensing molecules (A. tumefaciens C58 [3]; [8]): restored; Ti plasmid transconjugants (A. tumefaciens C58 [4]): could also be detected; Ti plasmid conjugation (A. tumefaciens C58 [4]; accF defective mutant donor): abolished; Ti plasmid conjugation (A. tumefaciens C58 [4]; [8]): restored |
| O=P(O)(O)O[C@H]1O[C@H](CO)[C@@H](O)[C@H](O)[C@H]1O [glucose-1-phosphate, reference compound] | no autofluorescence signal changes | – | – | – | – | – | – | – |
| O=C[C@H](O)[C@@H](O)[C@H](O)[C@H](O)COP(=O)(O)O [glucose-6-phosphate, reference compound] | no autofluorescence signal changes | – | – | – | – | – | – | – |
| AccR, master transcriptional regulator (transcriptional repressor of the DeoR family) of Agrobacterium tumefaciens C58 (natural protein) | – | – | – | – | – | – | – | stoichiometry N [6]: 2 |
| agrocin 84 [reference compound] | no signal was measured | – | -3.6E4 | -7.7 kcal/mol | -43.7 ± 3.8 kcal/mol | 0.8 ± 0.043 | 6.83E5 ± 1.8E5 | Kd (AccA [2]; 20°C, one binding site model, read-out: mean KD (isothermal titration microcalorimetry)): 1500 ± 410 nM |
| phosphate [reference compound] | No fluorescence intensity change | – | – | – | – | – | – | – |
